Test results reported in patent US20240252673A1, “ANTI-TISSUE FACTOR ANTIBODY-DRUG CONJUGATES AND THEIR USE IN THE TREATMENT OF CANCER” (priority 2017, published 2024).

Legend:
Type in all cases: in vivo, human
[1] = test system: locally advanced and/or metastatic cancer of various types including cervical cancer; experiment: Phase I/II dose-escalation study: anti-tumor activity per RECIST v1.1 (CT scans every six weeks)
Protocol: A first-in-human phase I/II dose-escalating study following a 3+3 dose-escalation design was conducted in order to test the safety of tisotumab vedotin in 27 subjects with locally advanced and/or metastatic cancer of various types including cervical cancer (FIG. 2). Tisotumab vedotin was administered by intravenous infusion at doses ranging from 0.3 mg/kg to 2.2 mg/kg on day 1 of a 21-day cycle for four cycles (i.e., each treatment cycle was 3 weeks). Patients with stable disease (SD) or better at the end of four cycles had the option to continue treatment with tisotumab vedotin for eight additional cycles (FIG. 2). Tumor evaluations were performed by CT scans every six weeks. In order to qualify for SD, results of the CT scan scheduled for week six needed to be SD or better. Two CT scans were performed outside the per-protocol defined window.
A primary objective of the study was to assess the safety and tolerability in a mixed population of patients with specified solid tumors. Adverse event (AE) severity was graded according to Common Terminology Criteria for Adverse Events (CTCAE) version 4.03. Secondary objectives of the study included determining the pharmacokinetic (PK) profile of tisotumab vedotin and preliminary evaluation of anti-tumor activity as assessed according to Response Evaluation Criteria in Solid Tumors [RECIST] version 1.1. Dose-limiting toxicities (DLTs) were determined during the first cycle and were defined as grade≥3 events possibly related to tisotumab vedotin. […] Tumor biopsies were required at baseline for TF expression which was assessed by immunohistochemistry utilizing tisotumab. TF staining intensity was determined using the H-scoring system.

[2] = test system: relapsed, recurrent and/or metastatic cervical cancer; experiment: Phase IIa single arm trial: anti-tumor activity per RECIST v1.1; conditions: 2.0 mg/kg q3w
Protocol: (§1) A Phase IIa single arm, multicenter trial investigated the efficacy, safety and tolerability of 2.0 mg/kg tisotumab vedotin in patients with relapsed, recurrent and/or metastatic cervical cancer. A total of 34 patients (n=34) were enrolled and received at least 1 dose of tisotumab vedotin. Each eligible patient was assigned to receive an intravenous (IV) infusion dose of tisotumab vedotin at a concentration of 2.0 mg/kg on day 1 of a 21-day cycle (i.e., each treatment cycle was 3 weeks (q3w)).
(§2) A primary objective of the study was to assess safety and tolerability of tisotumab vedotin. Adverse event (AE) severity was graded according to CTCAE version 4.03. A secondary objective was preliminary evaluation of anti-tumor activity durability as assessed according to RECIST version 1.1. Tumor evaluations were performed by CT scans every six weeks.

[3] = test system: patients with relapsed, recurrent and/or metastatic cervical cancer; experiment: Phase IIa single arm trial: safety and tolerability (CTCAE v4.03); conditions: 2.0 mg/kg q3w
Protocol: as §1
Lyophilized vials containing 40 mg of tisotumab vedotin were stored in a refrigerator at 2° C. to 8° C. Tisotumab vedotin was reconstituted in 4 ml of water leading to a reconstituted solution comprising 10 mg/mL tisotumab vedotin, 30 mM histidine, 88 mM sucrose, and 165 mM D-mannitol. […] The reconstituted tisotumab vedotin was diluted into a 0.9% NaCl 100 mL infusion bag according to the dose calculated for the patient to receive 2.0 mg/kg tisotumab vedotin. Intravenous infusion was completed within 24 hours after the tisotumab vedotin vial had been reconstituted. A 0.2 μm in-line filter was used for the intravenous infusion. The entire 100 mL volume from the prepared infusion bag was administered. No dead volume was provided.
as §2

[4] = Patient 2, cervical cancer, 1.2 mg/kg

## tisotumab vedotin
[1]; 0.3 mg/kg (n = 3)
  Confirmed Response per RECIST v1.1: Complete response (CR): 0 n
  Confirmed Response per RECIST v1.1: Not evaluable: 0 n
  Confirmed Response per RECIST v1.1: Partial response (PR): 0 n
[1]; 0.6 mg/kg (n = 3)
  Confirmed Response per RECIST v1.1: Complete response (CR): 0 n
  Confirmed Response per RECIST v1.1: Partial response (PR): 0 n
[1]; 0.9 mg/kg (n = 3)
  Confirmed Response per RECIST v1.1: Complete response (CR): 0 n
  Confirmed Response per RECIST v1.1: Not evaluable: 0 n
  Confirmed Response per RECIST v1.1: Partial response (PR): 0 n
[1]; 1.2 mg/kg (n = 3)
  Confirmed Response per RECIST v1.1: Complete response (CR): 0 n
  Confirmed Response per RECIST v1.1: Not evaluable: 0 n
[1]; 1.5 mg/kg (n = 3)
  Confirmed Response per RECIST v1.1: Complete response (CR): 0 n
  Confirmed Response per RECIST v1.1: Not evaluable: 0 n
  Confirmed Response per RECIST v1.1: Partial response (PR): 0 n
[1]; 1.8 mg/kg (n = 3)
  Confirmed Response per RECIST v1.1: Complete response (CR): 0 n
  Confirmed Response per RECIST v1.1: Not evaluable: 0 n
  Confirmed Response per RECIST v1.1: Partial response (PR): 0 n
  Confirmed Response per RECIST v1.1: Progressive disease (PD): 0 n
[1]; 2.0 mg/kg (n = 3)
  Confirmed Response per RECIST v1.1: Complete response (CR): 0 n
  Confirmed Response per RECIST v1.1: Not evaluable: 0 n
  Confirmed Response per RECIST v1.1: Partial response (PR): 0 n
[1]; 2.2 mg/kg (n = 6)
  Confirmed Response per RECIST v1.1: Complete response (CR): 0 n
  Confirmed Response per RECIST v1.1: Not evaluable: 0 n
  Confirmed Response per RECIST v1.1: Partial response (PR): 0 n
[1]; Patient 1, cervical cancer, 2.2 mg/kg
  reduction in tumor size relative to baseline: about 20%
[1]; [4]
  best response: confirmed PR
  continued benefit, total duration: 15 months
[1]; Patient 2, stage 4 cervical cancer, 3 prior lines, 1.2 mg/kg
  reduction in tumor size relative to baseline (target lesion): about 51%
[1]; all doses (n = 27)
  Confirmed Response per RECIST v1.1: Complete response (CR): 0 n
[1]; all doses, 26 patients evaluated
  disease control rate (DCR; PR+SD): 46%
[1]; all doses, 27 patients
  patients withdrew from treatment due to disease progression: 67%
[1]; all doses, out of 26 patients
  disease control rate (DCR; PR+SD), patients: 12 patients
[2]; 34 patients
  patients withdrew from treatment due to disease progression: 16 n
[2]; N = 34
  Median DoR for confirmed and unconfirmed responses: ^eMedian DoR of 5.4 months for confirmed and unconfirmed responses.
  Median PFS: 6.4 months
  confirmed PR: 8
[2]; N = 34, 1 of which is still ongoing
  unconfirmed PR: 3
[2]; N = 34, 95% Confidence interval 17%-50%
  Objective response rate (ORR): 32 % of total patients
[2]; N = 34, clinical benefit after 12 weeks, 95% Confidence interval 35%-65%
  DCR (CR + PR + SD): 50 % of total patients
[2]; cervical cancer cohort
  efficacy, overall conclusion: robust efficacy
[3]; 34 patients
  grade 4 or grade 5 events: no grade 4 or grade 5 events
  patients withdrew from treatment due to AE: 5 n
[3]; after mitigation (n=19)
  patients experienced conjunctivitis at grade≥3: 5%
  patients experienced conjunctivitis of any grade: 32%
[3]; prior to mitigation (n=15)
  patients experienced conjunctivitis of any grade: 73%
[3]; cervical cancer cohort
  safety profile, overall conclusion: manageable safety profile
